Results: patent US20160256460A1, “ACTIVATORS OR STIMULATORS OF SOLUBLE GUANYLATE CYCLASE FOR USE IN TREATING CHRONIC FATIGUE SYNDROME” (BERGEN TEKNOLOGIOVERFØRING AS, priority 2013, published 2016)

Tested on: ME/CFS patient
Experiment: Case report: oral riociguate (Adempas) in one ME/CFS patient
Format: in vivo, human
Procedure: It is understood that the examples illustrate the invention further without limiting the same. The patient is a person. They have had ME/CFS for 10 years, starting after a Giardia Lamblia infection. They have a disease severity varying between moderate and mild, but with moderate severity the last month prior to start of Riociguat. They have a typical ME/CFS and fulfils Canadian criteria. […] They started with only 0.5 mg once daily, gradually increasing to 0.5 two times daily after a few days and again to 0.5 mg three times daily on day six. […] The dose was increased to 1 mg+0.5 mg+1 mg starting from day seven and, in addition, starting from day nine increased to 1 mg three times daily. […] They told the clinicians of the improvement of their ME/CFS symptoms. They experienced this improvement to be significant and not within the usual range of symptom variation of their ME/CFS disease the last months.

Question: For COC(=O)N(C)c1c(N)nc(-c2nn(Cc3ccccc3F)c3ncccc23)nc1N [Riociguat, Methyl 4,6-diamino-2-[1-(2-fluorobenzyl)-1H-pyrazolo[3,4-b]pyridine-3-yl]-5-pyrimidinyl(methyl)carbamate], which “ME/CFS symptom change reported by the patient” value (after the first six days, at a dose of 2.5 mg per day) is on record?
Answer: more energy and less fatigue, less brain fog with an improved concentration ability, less hypersensitivity to sound and light, and less feeling of sore throat

Question: What about the “benefit on the ME/CFS symptoms” value (person, moderate ME/CFS, oral 0.5 mg once daily increased to 0.5 mg three times daily on day six, noticed from day six, the next three days) of the same molecule?
Answer: benefit on the ME/CFS symptoms

Question: What about the side effects (same patient, dose increased up to 1 mg three times daily from day nine) of the same molecule?
Answer: no clear side effects
